The values below come from US11136370B2, “Compositions and methods for thrombin generation assay” (The Scripps Research Institute, priority 2016, dated 2021).

For one assay, the system named is thrombin generation (TG). The class given is biochemical, human. The settings on record: recalcified PRP containing CTI. The procedure: TG in PRP or reconstituted PRP was evaluated as known to those skilled in the art. Native PRP was prepared from blood collected into final 12.9 mM trisodium citrate by centrifugation at 250 g for 10 min at 25° C. The platelet count was adjusted to 180×10^3/μl by dilution with homologous PPP obtained by centrifuging PRP for 10 min at 1,500 g. CTI was added at 30-50 μg/ml depending on calibrated potency as assessed by FXIIa inhibition. Reconstituted PRP was prepared with washed platelets prepared from normal PRP by adding ⅕th volume of acid citrate-dextrose (71 mM citric acid, 85 mM trisodium citrate, and 111 mM dextrose, pH 4.5) and 5 U/ml apyrase; following centrifugation at 1,500 g for 10 minutes at 25° C., the platelet pellet was resuspended into PPP lacking FVII (George King Bio-Medical) or FIX (Haematologic Technologies) to give a final platelet count of 180·103/μl PRP was mixed with varying concentrations of rTF and/or 20 pM FIXa in 96-well microtiter plates. The reaction was started by adding 18 mM CaCl2 with 360 μM of the thrombin substrate benzyloxycarbonyl-glycyl-glycyl-L-arginine coupled to the fluorogenic group 7-amido-4-methylcoumarin (Gly-Gly-Arg-AMC; Bachem Americas, Torrance, Calif.). Fluorescence was measured continuously at 37° C. for up to 40 min in a spectrofluorometer (355/460 nm excitation/emission). The rate of fluorescence intensity increase as a function of time (dF/dt) was calculated with Turbo Delphi 2006 (Borland Software Corporation, Austin, Tex.) and converted to thrombin-equivalent concentration (nM) using a calibration curve. The endogenous thrombin potential (ETP) of samples, i.e. total generated thrombin activity, was determined from the area under the TG curve. When specified, TG was measured with a discontinuous 2-stage assay with a detection limit of 5 pM. For this, TG was induced by 0.15 pM rTF and 18 mM CaCl2 in reconstituted FVII-deficient PRP including 30 μg/ml CTI with 400 pM WT FVIIa or iFVIIa without or with 20 pM FIXa. After incubation for up to 11 min at 37° C., reactions were terminated by adding 20 mM EDTA and generated thrombin was measured using the highly sensitive thrombin substrate H-D-CHA-Ala-Arg-AMC.2AcOH (Pefafluor TH, Pentapharm, Basel, Switzerland) at 50 μM concentration. In other experiments, TG was induced by TFiFVIIa-FXa-TFPI or TF-iFVIIa-FXa-NAPc2. These stable complexes were pre-formed by incubating 5 nM FXa, 10 nM TF, 10 nM iFVIIa and 40 nM TFPI or NAPc2 in the presence of 2.5 mM CaCl2 for 2 min at 37° C. Complexes were added into FVII-deficient PRP, followed by incubation for 8 min at 37° C.
PRP was prepared from blood collected into trisodium citrate (final concentration 0.0129 M) by centrifugation for at 250 g for 10 min at 25° C.; the platelet count was adjusted at 180.103 per μl by diluting with homologous platelet-poor plasma (PPP) obtained by centrifuging PRP for an additional 10 min at 1,500 g. When indicated, CTI was added at 30 to 50 μg/ml depending on calibrated potency measured by FXIIa inhibition. Reconstituted PRP was prepared by adding normal washed platelets into PPP (without or with CTI) lacking FVII, FVIII (both from George King Bio-Medical, Overland Park, Kans.) or FIX (Haematologic Technologies). […] generation in PRP was measured as described by Hemker et al. 53 μl of PRP was mixed in 96-well microtiter plates with 15 μl of a solution containing rTF and/or one of the intrinsic coagulation pathway proteases—FXIIa, FXIa or FIXa—to achieve the indicated final concentrations. Antibodies or inhibitors were also added at this point at the concentration indicated for each specific case. The reaction was started by adding between 15 and 20 μl of 100 mM CaCl2 and 2 mM fluorogenic substrate, benzyloxycarbonyl-glycyl-glycyl-L-arginine-7-amido-4-methylcoumarin (Gly-Gly-Arg-AMC; Bachem Americas, Torrance, Calif.).

A further assay deals with initial TG. Briefly: Discontinuous 2-stage assay of initial TG in platelet-poor plasma. The class given is biochemical, human. The procedure: FIG. 21 illustrates, in accordance with embodiments herein, TG assays in FVIII-deficient PPP without or with anti-FVIII inhibitors. (A) Initial TG in discontinuous 2-stage assay was induced by adding 150 fM rTF/200 pM FIXa and 5 μM PL, followed by incubation for 5 min at 37° C. Each column indicates mean+SEM (n=3) of generated FIIa. (B) Comparison of dose-response curve of added FVIII in TG in FVIII-deficient plasma by discontinuous 2-stage assay with that by continuous assay.
FIG. 22 illustrates, in accordance with embodiments herein, FVIIIa-dependent and -independent TG in plasma from Coumadin-treated patients. FVIIIa-dependent TG was induced by adding 150 fM rTF/200 pM FIXa with 1.3 μM PL, while FVIIIa-independent TG was by 1.2 pM rTF with 1.3 μM PL. Each column indicates mean+SEM (n=3) of generated FIIa after 3 min of incubation.
To establish highly sensitive TG assay method, the inventors made a screening of FIIa substrates with high affinity and turnover rate by determining kinetic parameters and then constructed a calibration curve with known concentrations of a FIIa calibrator. In the studies, they found two fluorogenic substrates H-D-cyclohexyl-alanyl-alanyl-argininyl-amidomethylcoumarin (AMC) (Pefafluor TH) and butyloxycarbonyl-valyl-prolinyl-argininyl-AMC (V-P-R-AMC) were suitable for quantifying much low concentrations of FIIa activity with a detection limit of ˜5 pM (FIG. 17). Initial TG was measured with “discontinuous 2-stage assay” using the high sensitive substrate. Briefly, TG was initiated by combined addition of rTF and FIXa with 18 mM CaCl2 into plasma, followed by incubation for up to 5 min at 37° C. After incubation, reactions were terminated with 20 mM EDTA and generated FIIa was measured using the highly sensitive FIIa substrate Pefafluor TH or V-P-R-AMC. In the assays, combined addition of 150 fM rTF and 200 pM FIXa time-dependently produced FIIa in normal platelet-poor plasma (PPP) prepared from healthy donors (FIG. 18A). […] To further validate the assay method, reproducibility of the TG assay method was examined by determination of intra-assay and inter-assay coefficient of variations (CV) using manual assay protocol.

Assay [1] concerns fibrillar collagen type I. Briefly: Blood perfusion over fibrillar collagen type I, volume of platelet aggregates and fibrin. It counts as cell-based, human. The settings on record: blood of treated patients, collagen surface. The procedure: The volume of platelet aggregates and deposited fibrin was measured by confocal microscopy. Statistical analysis by one-way ANOVA and Tukey post-test. *P<0.05; **P<0.01; ***P<0.001.
Glass coverslips treated with 0.2 mg/ml poly-L-lysine for 6 h at 37° C. were coated with rTF for 18-20 hours at 37° C. or 2.5 mg/ml acid-insoluble type I collagen for 2 hours at 22-25° C. Then they were rinsed with pH 7.4 buffered-saline, assembled in a rectangular flow chamber with a 125 μm-high silicon gasket and positioned on a confocal microscope stage for analysis. Venous blood for testing was collected into final 10.9 mM trisodium citrate using a plastic syringe for normal volunteers or Vacutainer tubes (Becton Dickinson, Buccinasco, Milan) for patients and controls. Before perfusion at a flow rate yielding an initial wall shear rate of 300 s^−1 maintained with a syringe pump (Harvard Apparatus, Holliston, Mass.), CaCl2 was added to obtain 1.29 mM Ca^2+. In the blood of patients—potentially hypercoagulable—and related controls, lepirudin (50 nM) was also added to neutralize thrombin possibly generated before testing. […] For experiments with WT and mutant FVIIa, cells from group O citrated blood, containing 50 μg/ml CTI and 10 U/ml (ADPase activity) apyrase, were washed free of plasma by sequential centrifugation steps at 1500 g for 7 min. After the first, plasma was replaced with an equal volume of calcium-free Tyrode buffer, pH 6.5, with 5 U/ml apyrase; then with buffer and 1.25 U/ml apyrase; and finally with human FVII deficient plasma (George King Bio-Medical, Overland Park, Kans.) up to the original blood volume. […] Experiments in Milan (Italy) were performed with a Leica TCS SP5 microscope and HCX PL APO 63x/1.40 NA oil immersion objective (Leica Microsystems GmbH, Wetzlar, Germany); in La Jolla (California) with a Zeiss Axiovert 135M/LSM 410 and Plan-Apochromat 40x/1.40 NA oil immersion objective (Carl Zeiss AG, Oberkochen, Germany).
Platelets adhering and aggregating onto the surface were visualized by adding quinacrine-HCl (mepacrine; 10 μg/ml; Sigma-Aldrich) to blood. Deposited fibrin was visualized with Alexa Fluor 546-labeled (Invitrogen) mouse monoclonal IgG (50 μg/ml) specific for the B chain of mouse and human fibrin (HB-8545; ATCC). […] This was followed by buffer (DMEM) for 2 minutes to facilitate fibrin quantification by confocal z section analysis using a Zeiss Axiovert 135M/LSM 410 microscope (Carl Zeiss) and Plan-Apochromat×63/1.40 NA oil immersion objective. […] Deposited fibrin volume was measured from confocal sections collected at 4 preset positions in the flow chamber. Total volume of deposited platelets and fibrin was calculated from the sum of the respective area coverage per section multiplied by the z interval (2 μm). […]

The next assay has as its system immobilized rTF. Kind of assay: Blood perfusion over immobilized rTF, volume of platelet aggregates and fibrin. The class given is cell-based, human. The procedure: Glass coverslips treated with 0.2 mg/ml poly-L-lysine for 6 h at 37° C. were coated with rTF for 18-20 hours at 37° C. or 2.5 mg/ml acid-insoluble type I collagen for 2 hours at 22-25° C. Then they were rinsed with pH 7.4 buffered-saline, assembled in a rectangular flow chamber with a 125 μm-high silicon gasket and positioned on a confocal microscope stage for analysis. Venous blood for testing was collected into final 10.9 mM trisodium citrate using a plastic syringe for normal volunteers or Vacutainer tubes (Becton Dickinson, Buccinasco, Milan) for patients and controls. Before perfusion at a flow rate yielding an initial wall shear rate of 300 s^−1 maintained with a syringe pump (Harvard Apparatus, Holliston, Mass.), CaCl2 was added to obtain 1.29 mM Ca^2+. In the blood of patients—potentially hypercoagulable—and related controls, lepirudin (50 nM) was also added to neutralize thrombin possibly generated before testing. […] For experiments with WT and mutant FVIIa, cells from group O citrated blood, containing 50 μg/ml CTI and 10 U/ml (ADPase activity) apyrase, were washed free of plasma by sequential centrifugation steps at 1500 g for 7 min. After the first, plasma was replaced with an equal volume of calcium-free Tyrode buffer, pH 6.5, with 5 U/ml apyrase; then with buffer and 1.25 U/ml apyrase; and finally with human FVII deficient plasma (George King Bio-Medical, Overland Park, Kans.) up to the original blood volume. Cell count results in reconstituted and native blood were within 90%. Experiments in Milan (Italy) were performed with a Leica TCS SP5 microscope and HCX PL APO 63x/1.40 NA oil immersion objective (Leica Microsystems GmbH, Wetzlar, Germany); in La Jolla (California) with a Zeiss Axiovert 135M/LSM 410 and Plan-Apochromat 40x/1.40 NA oil immersion objective (Carl Zeiss AG, Oberkochen, Germany).
Platelets adhering and aggregating onto the surface were visualized by adding quinacrine-HCl (mepacrine; 10 μg/ml; Sigma-Aldrich) to blood. Deposited fibrin was visualized with Alexa Fluor 546-labeled (Invitrogen) mouse monoclonal IgG (50 μg/ml) specific for the B chain of mouse and human fibrin (HB-8545; ATCC). Blood was perfused for 3-5 min at 37° C. with a syringe pump (Harvard Apparatus Inc.) at a flow rate yielding an initial (in the unobstructed flow path) wall shear rate of 300 s^−1. This was followed by buffer (DMEM) for 2 minutes to facilitate fibrin quantification by confocal z section analysis using a Zeiss Axiovert 135M/LSM 410 microscope (Carl Zeiss) and Plan-Apochromat×63/1.40 NA oil immersion objective. Image analysis was performed with NIH ImageJ64. Deposited fibrin volume was measured from confocal sections collected at 4 preset positions in the flow chamber. Total volume of deposited platelets and fibrin was calculated from the sum of the respective area coverage per section multiplied by the z interval (2 μm). All studies involving human subjects were conducted following institutionally approved protocols.
TF-coated glass coverslips were perfused with venous blood at a wall shear rate of 300 s^−1. A Zeiss Axiovert 135M/LSM 410 and Plan-Apochromat 40x/1.40 NA oil immersion objective (Carl Zeiss AG, Oberkochen, Germany) was used to visualize platelets/leukocytes and fibrin stained with mepacrine and a specific anti-body, respectively. Image analysis to calculate volumes was performed as described herein.
Glass coverslips treated with 0.2 mg/ml poly-L-lysine for 6 h at 37° C. were coated with rTF for 18-20 hours at 37° C., rinsed with buffered-saline and assembled in a rectangular flow chamber with a 125 μm-high silicon gasket. Venous blood was collected into final 10.9 mM trisodium citrate using a plastic syringe. CaCl2 was added to obtain 1.29 mM Ca^2+ before perfusion at a wall shear rate of 300 s-1 maintained with a syringe pump (Harvard Apparatus, Holliston, Mass.). […]

Another assay has as its system TF-FVIIa. Kind of assay: FXa generation by TF-FVIIa in reactions with purified components. It counts as biochemical, human. The settings on record: reconstituted system.

Entries after “also recorded” stand apart in the source; their conditions may differ. Bounds are passed on as bounds.

Regarding `COc1ccc(-n2nc(C(N)=O)c3c2C(=O)N(c2ccc(N4CCCCC4=O)cc2)CC3)cc1` [apixaban], the “difference in dose response between rivaroxaban and apixaban” value with thrombin generation (TG) is about 3 fold.

Turning to `CC(=O)CC(c1ccccc1)c1c(O)c2ccccc2oc1=O` (stereo not shown) [warfarin], in the assay on initial TG (1.2 pM rTF alone without FIXa, patient plasma), the “FVIIIa-independent TG” value was “abolished even at lower INR”. Also, the “initial FVIIIa-dependent TG” value in the assay on initial TG (patient plasma with INR 1.5, 150 fM rTF/200 pM FIXa, 1.3 μM PL, 3 min) was ~15 % of normal plasma; in the assay on initial TG (patient plasma with INR 2.9, 150 fM rTF/200 pM FIXa, 1.3 μM PL, 3 min), ~5 % of normal plasma; in the assay on initial TG (patient plasma with much higher INR values), “completely abolished”. Also, in assay [1], the “mean volume of platelet aggregates vs controls” value is recorded as “not significantly different”. Further, the “volume of deposited fibrin vs controls” value in assay [1] is on record as “significantly reduced; also recorded: markedly reduced”. Moreover, the fibrin deposition entry with immobilized rTF (blood of treated patients, high density TF surface) is “significantly reduced”. For the same compound, the “volume of deposited fibrin” value in the assay with immobilized rTF (blood of treated patients, higher rTF coating concentration, 300 s^-1, 5 min) is recorded as “markedly reduced fibrin formation”. Besides, the “volume of deposited fibrin vs untreated controls” value in the assay on immobilized rTF (blood of treated patients, lower rTF coating concentration, 300 s^-1, 5 min) is listed as “markedly smaller”. Further, the “volume of platelet aggregates vs controls” value in the assay with immobilized rTF (blood of treated patients, rTF coating 20 and 40 pM) is reported as “significantly reduced on both rTF surfaces”.

Regarding “TFPI with protein S: TFPI with protein S (PS) cofactor”, the “reduction of FXa produced by TF-FVIIa” value in the assay on TF-FVIIa is reported as over 75%.

As for “recombinant [Leu1-Thr2]-63-desulfohirudin [lepirudin]”, the “effect on deposited fibrin volume in the flow chamber” value in the assay with immobilized rTF (lepirudin 50 nM, preliminary experiments) was “limited effect”.
